# Test results taken from patent US6586425B2, “Cytoskeletal active agents for glaucoma therapy” (Wisconsin Alumni Research Foundation, priority 1996, dated 2003).
# Where two headings read alike, the source gives them in different places.
# Columns and labels:
# [1] = test system: living monkey eyes; test: Intraocular pressure by Goldmann applanation tonometry; type: in vivo, cynomolgus monkeys (Macaca fascicularis)
# Method: The intraocular pressure (IOP) was determined with a “minified” Goldmann applanation tonometer (Kaufman and Davis, Arch. Ophthalmol., 98:542-546[1980]), using “Half and Half®” creamer solution (Borden) as the tear film indicator (Croft et al., in Lakshminarayanan (ed.), Basic and Clinical Applications of Vision Science, Dordtecht, Kluwer, [1997], pp. 213-216), with the monkey lying prone in a head holder and the eyes positioned 4 to 8 cm above the heart. All monkeys were examined by slit-lamp before the first IOP measurement in each protocol. For each eye, two or three IOP measurements were averaged as a baseline.
# After baseline IOP was measured, 21 or 42 μg LAT-A or 4 μg LAT-B were administered to the central cornea of supine monkeys in one eye and the vehicle to the opposite eye. Blinking was prevented with lid speculums during and for 5 min. after drug administration (taking care to avoid touching the globe), to maximize drug penetration into the AC and minimize systemic absorption. Following drug administration, the speculums were gently removed and the monkeys were kept in the supine position for another 15 min to further facilitate penetration of drug/vehicle solution into the AC. For LAT-A, IOP was then measured every hr for 7 to 9 hr beginning 1, 6, or 15 hr after the 21 gg dose, or beginning 1 or 6 hr after the 42 μg dose, and again at 24 hr. Each protocol included two groups of monkeys. Group one (6 monkeys) underwent IOP measurement from 1-9 hr and again at 24 hr after the drug; group two (6 monkeys) were measured from 6-13 hr for both doses and again from 15 hr-21 hr on a separate occasion for the 21 μg dose. For both doses, one monkey in group one was used again in group two; therefore its two readings measured at baseline or the period 6-9 hr after the drug on the two different occasions was averaged for data analysis. Thus, “n” for baseline and the period 6-9 hr post-drug is 11 rather than 12. During intervals between the post-drug reading at 9 hr and that at 24 hr for group one or between the drug administration and the first post-drug reading at 6 hr for group two, the animals were returned to the Animal Care Unit for recovery. For LAT-B, IOP was measured every hr for 6 hr beginning 1 hr after the 4 μg dose, and again at 24 hr. The animals were returned to the Animal Care Unit for recovery between the measurements at 6 hr and 24 hr. Anterior segments were examined by slit-lamp at 3, 6, 10 or 24 hr after LAT-A, or at 1, 3, 6 or 24 hr after LAT-B.
# [2] = test system: living monkey eyes; test: Aqueous humor protein concentration (Lowry method); type: in vivo, cynomolgus monkeys (Macaca fascicularis); details: 4 μg LAT-B topical, insignificant
# Description: Approximately 5.5 hr after LAT-A and vehicle (25% DMSO) administration, or approximately 6.5 hr after LAT-B and vehicle (25% DMSO) administration, when AHF measurements had been completed, a sample of AH was obtained under a Zeiss surgical microscope, using a 30-gauge needle connected via polyethylene tubing to a tuberculin syringe. The needle was threaded through the corneal stroma for 6 mm, then directed into the AC so that the wound was self-sealing. AH entered the tubing by very gentle suction with the tuberculin syringe; only occasionally was brief mild pressure on the cornea with a needle holder required to promote the initial flow of AH into the tubing via the very thin needle. Approximately 60-80 μl of AH was removed, leaving a shallow but not completely flattened AC. In separate protocols with different monkeys, AH was similarly obtained 2 hr after 42 μg LAT-A or 1 hr after 4 μg LAT-B to one eye and vehicle to the opposite eye. The AH samples were stored at −20° C. for up to 24 hr. The protein concentration in each sample was assayed by the Lowry method, as known in the art (See e.g., Lowry et al., J. Biol. Chem., 193:265-275[1951]; and Peterson et al., Anal. Biochem., 100:201-220[1979]), in duplicate, and the result averaged. Duplicate sets of protein standards containing 0, 1, 3, 5, 10, 20, 40, or 60 μg bovine serum albumin (BSA) were assayed by the same method and results averaged and graphed to give a linear equation that was used to estimate the protein content in the AH samples. The optical density of each sample was measured at 660 nm using a Spectronic 20 Spectrophotometer (Bausch and Lomb).
# [3] = test system: corneal endothelium; details: 42 μg LAT-A topical, n=4
# [4] = test system: living monkey eyes; test: Slit lamp biomicroscopy (ocular tolerability); type: in vivo, cynomolgus monkeys (Macaca fascicularis); details: one to 5 hr after topical drug
# [5] = test system: living monkey eyes; test: Aqueous humor flow and corneal endothelial transfer coefficient ka by fluorophotometry; details: for AHF Rx, LAT-B/Vehicle / AHF Rx/BL, LAT-B eye / AHF Rx/BL, LAT-B/Vehicle / ka Rx, LAT-B eye / ka Rx, LAT-B/Vehicle / ka Rx/BL, LAT-B eye / ka Rx/BL, LAT-B/Vehicle: 4.0 μg LAT-B topical
structure (smiles),measurement,setting,value
C/C1=C/C(=O)O[C@@H]2C[C@@H](CC[C@H](C)/C=C\CC1)O[C@@](O)([C@@H]1CSC(=O)N1)C2 [LAT-B],"maximal IOP reduction, adjusted for baseline and contralateral control eyes","[1]; 4 μg LAT-B topical, 6 hr, n=8",3.1±1.2 mmHg
same,IOP,"[1]; 4 μg LAT-B topical, at 6 hr (from 17 mmHg)",13.5 mmHg
same,IOP,"[1]; 4 μg LAT-B topical, within 1 hr (from 17 mmHg)",15 mmHg
same,time to IOP reduction after administration,"[1]; living monkeys, topical",≤ 1 h
same,[Protein]AC increase vs contralateral control eyes,"[2]; 1 hr, n=4",80±51%
same,[Protein]AC increase vs contralateral control eyes,"[2]; 6.5 hr, n=6",11±24%
same,"Cell count Exp, drug eye",[3]; 3 days,2188 ± 430 cell per square millimeter
same,"Cell count Exp, drug/Vehicle",[3]; 3 days,0.86 ± 0.11
same,"Cell count Exp, drug−Vehicle",[3]; 3 days,−281 ± 248 cell per square millimeter
same,"Cell count Exp/BL, drug eye",[3]; 3 days,0.83 ± 0.14
same,"Cell count Exp/BL, drug/Vehicle",[3]; 3 days,0.80 ± 0.11
same,"Cell count Exp/BL, drug−Vehicle",[3]; 3 days,−0.18 ± 0.10
same,"Cell count Exp, drug eye",[3]; 7 days,2494 ± 166 cell per square millimeter
same,"Cell count Exp, drug/Vehicle",[3]; 7 days,1.04 ± 0.03
same,"Cell count Exp, drug−Vehicle",[3]; 7 days,94 ± 68 cell per square millimeter
same,"Cell count Exp/BL, drug eye",[3]; 7 days,0.94 ± 0.04
same,"Cell count Exp/BL, drug/Vehicle",[3]; 7 days,0.96 ± 0.02
same,"Cell count Exp/BL, drug−Vehicle",[3]; 7 days,−0.04 ± 0.02
same,"Cell count Exp, drug eye",[3]; 14 days,2581 ± 143 cell per square millimeter
same,"Cell count Exp, drug/Vehicle",[3]; 14 days,1.03 ± 0.05
same,"Cell count Exp, drug−Vehicle",[3]; 14 days,75 ± 108 cell per square millimeter
same,"Cell count Exp/BL, drug eye",[3]; 14 days,0.98 ± 0.02
same,"Cell count Exp/BL, drug/Vehicle",[3]; 14 days,0.95 ± 0.03
same,"Cell count Exp/BL, drug−Vehicle",[3]; 14 days,−0.05 ± 0.03
same,corneal endothelial cell borders,[4],indistinct
same,effect on AHF,"[5]; 4 μg LAT-B topical, first 3 hr","small, insignificant increase in AHF"
same,increase in ka,"[5]; 4 μg LAT-B topical, first 3 hr",58±20%
same,increase in ka,"[5]; 4 μg LAT-B topical, overall 6 hr, n=6",39±5%
same,"AHF Rx, LAT-B/Vehicle","[5]; hour 0.5 to 3.0, n=6",1.33
same,"AHF Rx/BL, LAT-B eye","[5]; hour 0.5 to 3.0, n=6",1.31
same,"AHF Rx/BL, LAT-B/Vehicle","[5]; hour 0.5 to 3.0, n=6",1.33
same,"ka Rx, LAT-B eye","[5]; hour 0.5 to 3.0, n=6",0.00735 min⁻¹
same,"ka Rx, LAT-B/Vehicle","[5]; hour 0.5 to 3.0, n=6",1.62
same,"ka Rx/BL, LAT-B eye","[5]; hour 0.5 to 3.0, n=6",1.44
same,"ka Rx/BL, LAT-B/Vehicle","[5]; hour 0.5 to 3.0, n=6",1.58
same,"AHF Rx, LAT-B/Vehicle","[5]; hour 0.5 to 6.0, n=6",1.14
same,"AHF Rx/BL, LAT-B eye","[5]; hour 0.5 to 6.0, n=6",1.04
same,"AHF Rx/BL, LAT-B/Vehicle","[5]; hour 0.5 to 6.0, n=6",1.16
same,"ka Rx, LAT-B eye","[5]; hour 0.5 to 6.0, n=6",0.00648 min⁻¹
same,"ka Rx, LAT-B/Vehicle","[5]; hour 0.5 to 6.0, n=6",1.34
same,"ka Rx/BL, LAT-B eye","[5]; hour 0.5 to 6.0, n=6",1.33
same,"ka Rx/BL, LAT-B/Vehicle","[5]; hour 0.5 to 6.0, n=6",1.39
same,"AHF Rx, LAT-B/Vehicle","[5]; hour 3.5 to 6.0, n=6",0.93
same,"AHF Rx/BL, LAT-B eye","[5]; hour 3.5 to 6.0, n=6",0.84
same,"AHF Rx/BL, LAT-B/Vehicle","[5]; hour 3.5 to 6.0, n=6",0.91
same,"ka Rx, LAT-B eye","[5]; hour 3.5 to 6.0, n=6",0.0063 min⁻¹
same,"ka Rx, LAT-B/Vehicle","[5]; hour 3.5 to 6.0, n=6",1.21
same,"ka Rx/BL, LAT-B eye","[5]; hour 3.5 to 6.0, n=6",1.31
same,"ka Rx/BL, LAT-B/Vehicle","[5]; hour 3.5 to 6.0, n=6",1.25
